Key:
Assay in all cases: relative viability (nuclei count vs DMSO), 5 days (fraction); higher = more cells survive
[1] = test system: COR-L 105
Outline: (§1)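 One day after seeding in 1536-well plates, lung cancer cell lines were dosed by pin tool. Dosing was either single-drug or a fixed anchor-drug dose plus five library-drug doses (not always all listed) in √10 steps. After 5 days, nuclei were stained in one fix-and-stain step and counted on 4× images, and relative viability is the nuclei count of treated wells over that of vehicle wells, given as the median of duplicate plates.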

[2] = test system: SK-LU-1
Outline: as §1

[3] = test system: SK-MES-1
Outline: as §1

[4] = test system: NCI-H2347
Outline: as §1

[5] = test system: LXF-289
Outline: as §1

[6] = test system: NCI-H1395
Outline: as §1

[7] = test system: NCI-H1755
Outline: as §1

[8] = test system: NCI-H661
Outline: as §1

[9] = test system: EKVX
Outline: as §1

[10] = test system: NCI-H1437
Outline: as §1

[11] = test system: NCI-H1651
Outline: as §1

[12] = test system: NCI-H2085
Outline: as §1

[13] = test system: H3255
Outline: as §1

[14] = test system: NCI-H1793
Outline: as §1

[15] = test system: LC-2-ad
Outline: as §1

[16] = test system: LK-2
Outline: as §1

[17] = test system: CAL-12T
Outline: as §1

[18] = test system: PC-3 [JPC-3]
Outline: as §1

[19] = test system: NCI-H1944
Outline: as §1

[20] = test system: NCI-H2087
Outline: as §1

[21] = test system: EMC-BAC-2
Outline: as §1

[22] = test system: NCI-H2228
Outline: as §1

[23] = test system: NCI-H1915
Outline: as §1

`O=C(O)CCCCC(CCSCc1ccccc1)SCc1ccccc1` (stereo not drawn) [CPI-613] + Nc1nc2[nH]cc(CCc3ccc(C(=O)N[C@@H](CCC(=O)O)C(=O)O)cc3)c2c(=O)[nH]1 [Pemetrexed] (partner 0.2 µM) was tested, and the relative viability ([1]; first compound 5 µM) was 1.01, the relative viability ([1]; first compound 15.81 µM) was 1.02 and the relative viability ([1]; first compound 50 µM) was 1.15. For the same compound, the relative viability ([1]; first compound 158.11 µM) was 0.392, the relative viability ([1]; first compound 500 µM) was 0.229 and the relative viability ([2]; first compound 5 µM) was 0.958. For the same compound, the relative viability ([2]; first compound 15.81 µM) was 0.88, the relative viability ([2]; first compound 50 µM) was 0.87 and the relative viability ([2]; first compound 158.11 µM) was 0.22. For the same compound, the relative viability ([2]; first compound 500 µM) was 0.0978, the relative viability ([3]; first compound 5 µM) was 0.975 and the relative viability ([3]; first compound 15.81 µM) was 0.807. The relative viability ([3]; first compound 50 µM) was 0.737, the relative viability ([3]; first compound 158.11 µM) was 0.17 and the relative viability ([3]; first compound 500 µM) was 0.104. It also gave a relative viability ([4]; first compound 5 µM) of 0.413, a relative viability ([4]; first compound 15.81 µM) of 0.434 and a relative viability ([4]; first compound 50 µM) of 0.405. The relative viability ([4]; first compound 158.11 µM) was 0.383, the relative viability ([4]; first compound 500 µM) was 0.419 and the relative viability ([5]; first compound 5 µM) was 0.903. For the same compound, the relative viability ([5]; first compound 15.81 µM) was 0.828, the relative viability ([5]; first compound 50 µM) was 0.851 and the relative viability ([5]; first compound 158.11 µM) was 0.757. It also gave a relative viability ([5]; first compound 500 µM) of 0.568, a relative viability ([6]; first compound 5 µM) of 0.942 and a relative viability ([6]; first compound 15.81 µM) of 0.671. The relative viability ([6]; first compound 50 µM) was 0.868, the relative viability ([6]; first compound 158.11 µM) was 0.723 and the relative viability ([6]; first compound 500 µM) was 0.598. For the same compound, the relative viability ([7]; first compound 5 µM) was 0.436, the relative viability ([7]; first compound 15.81 µM) was 0.57 and the relative viability ([7]; first compound 50 µM) was 0.371. For the same compound, the relative viability ([7]; first compound 158.11 µM) was 0.396, the relative viability ([7]; first compound 500 µM) was 0.372 and the relative viability ([8]; first compound 5 µM) was 0.887. The relative viability ([8]; first compound 15.81 µM) was 0.921, the relative viability ([8]; first compound 50 µM) was 0.863 and the relative viability ([8]; first compound 158.11 µM) was 0.557. It also gave a relative viability ([8]; first compound 500 µM) of 0.131, a relative viability ([9]; first compound 5 µM) of 0.373 and a relative viability ([9]; first compound 15.81 µM) of 0.355. It also gave a relative viability ([9]; first compound 50 µM) of 0.306, a relative viability ([9]; first compound 500 µM) of 0.388 and a relative viability ([10]; first compound 5 µM) of 0.328. The relative viability ([10]; first compound 15.81 µM) was 0.295, the relative viability ([10]; first compound 50 µM) was 0.301 and the relative viability ([10]; first compound 158.11 µM) was 0.0937. For the same compound, the relative viability ([10]; first compound 500 µM) was 0.0871, the relative viability ([11]; first compound 5 µM) was 0.591 and the relative viability ([11]; first compound 15.81 µM) was 0.588. For the same compound, the relative viability ([11]; first compound 50 µM) was 0.579, the relative viability ([11]; first compound 158.11 µM) was 0.519 and the relative viability ([11]; first compound 500 µM) was 0.579. The relative viability ([12]; first compound 5 µM) was 0.827, the relative viability ([12]; first compound 15.81 µM) was 0.672 and the relative viability ([12]; first compound 50 µM) was 0.82. The relative viability ([12]; first compound 158.11 µM) was 0.492, the relative viability ([12]; first compound 500 µM) was 0.18 and the relative viability ([13]; first compound 5 µM) was 0.543. The relative viability ([13]; first compound 15.81 µM) was 0.54, the relative viability ([13]; first compound 50 µM) was 0.543 and the relative viability ([13]; first compound 158.11 µM) was 0.534. The relative viability ([13]; first compound 500 µM) was 0.523, the relative viability ([14]; first compound 5 µM) was 0.895 and the relative viability ([14]; first compound 15.81 µM) was 0.71. It also gave a relative viability ([14]; first compound 50 µM) of 0.832, a relative viability ([14]; first compound 158.11 µM) of 0.378 and a relative viability ([14]; first compound 500 µM) of 0.0257. For the same compound, the relative viability ([15]; first compound 5 µM) was 0.256, the relative viability ([15]; first compound 15.81 µM) was 0.275 and the relative viability ([15]; first compound 50 µM) was 0.254. The relative viability ([15]; first compound 158.11 µM) was 0.116, the relative viability ([15]; first compound 500 µM) was 0.0144 and the relative viability ([16]; first compound 5 µM) was 0.337. It also gave a relative viability ([16]; first compound 15.81 µM) of 0.225, a relative viability ([16]; first compound 50 µM) of 0.324 and a relative viability ([16]; first compound 158.11 µM) of 0.265. It also gave a relative viability ([16]; first compound 500 µM) of 0.241, a relative viability ([17]; first compound 5 µM) of 1.02 and a relative viability ([17]; first compound 15.81 µM) of 1.03. For the same compound, the relative viability ([17]; first compound 50 µM) was 1.02, the relative viability ([17]; first compound 158.11 µM) was 0.0985 and the relative viability ([17]; first compound 500 µM) was 0.0501. For the same compound, the relative viability ([18]; first compound 5 µM) was 1.13, the relative viability ([18]; first compound 50 µM) was 1.11 and the relative viability ([18]; first compound 158.11 µM) was 0.606. It also gave a relative viability ([18]; first compound 500 µM) of 0.362, a relative viability ([19]; first compound 5 µM) of 0.647 and a relative viability ([19]; first compound 15.81 µM) of 0.575. The relative viability ([19]; first compound 50 µM) was 0.577, the relative viability ([19]; first compound 158.11 µM) was 0.339 and the relative viability ([19]; first compound 500 µM) was 0.408. The relative viability ([20]; first compound 5 µM) was 0.642, the relative viability ([20]; first compound 15.81 µM) was 0.662 and the relative viability ([20]; first compound 50 µM) was 0.689. It also gave a relative viability ([20]; first compound 158.11 µM) of 0.574, a relative viability ([20]; first compound 500 µM) of 0.007 and a relative viability ([21]; first compound 5 µM) of 0.435. It also gave a relative viability ([21]; first compound 15.81 µM) of 0.409, a relative viability ([21]; first compound 50 µM) of 0.456 and a relative viability ([21]; first compound 158.11 µM) of 0.461. It also gave a relative viability ([21]; first compound 500 µM) of 0.349, a relative viability ([22]; first compound 5 µM) of 0.362 and a relative viability ([22]; first compound 15.81 µM) of 0.33. The relative viability ([22]; first compound 50 µM) was 0.324, the relative viability ([22]; first compound 158.11 µM) was 0.272 and the relative viability ([22]; first compound 500 µM) was 0.059. It also gave a relative viability ([23]; first compound 5 µM) of 0.415, a relative viability ([23]; first compound 15.81 µM) of 0.513 and a relative viability ([23]; first compound 50 µM) of 0.458. For the same compound, the relative viability ([23]; first compound 158.11 µM) was 0.409 and the relative viability ([23]; first compound 500 µM) was 0.0364.

Source: the supplement of paper PMC10307832
